Read-outs that look alike come from different tables or passages of the source.
Tests used:
A375 (human malanoma) = test: MTT proliferation inhibition, A375 cells; format: cell-based; conditions: Homo sapiens, read-out: Inhibitory rate (%)
Source text: (§1) The Silica Gel Column Chromatography and Countercurrent Chromatography preparation techniques were used to obtain Friedelin monomer extracted from EZR2002 for the sake of evaluating its anti-tumor activity further. The purity of this monomer determined by GC-MS analysis was 90.5%.
(§2) A375 (human malanoma), L929 (mouse lung epithelial tumor), Hela (human cervical tumor) and THP-1 (human macrophage tumor) cell lines were used for active filtration test in this experiment. Among these cell lines, A375, L929 and Hela were adherent cells while THP-1 was a kind of suspended cell.
(§3) All cells were maintained in the RPMI-1640 culture medium supplemented with 10% fetal calf serum, penicillin (100 U/mL), streptomycin (100 μg/mL) and 0.2% NaHCO3. These supplements were dissolved in deionized water and 0.22 μm filtration membrane was used for filter sterilization. The fetal calf serum was inactivated 30 min at 56° C. prior to an experiment. Cells were cultured in a humidified incubator of 5% CO2 at 37° C.
(§4) A375, L929 and Hela cells in logarithmic growth phases were seeded at a cell density of approximately 5×10^4 cells/mL in 96 pore plates (100 μL/well). Furthermore, THP-1 cell was seeded at a cell density of approximately 1×10^5 cells/mL because it was smaller than others. Samples were added in suspended cells after culturing 4 h and in adherent cells after culturing 12 h. Friedelin was dissolved in DMSO in advance and then in the culture medium with the ultrasonic treatment, where the final concentration of the solvent in the culture medium was <0.1% (v/v). Sample was added for 7.5, 15, 30, 60, 120, 240, 480 and 960 μmol/L. Each level had four parallel pores and a negative control. The cells were incubated for 24 and 48 h and then 15 μL/well MTT solvent (5 mg/mL) was added.
(§5) The cells were incubated for 48 h, followed by centrifugation at 1500 rpm for 5 min. The supernatant was removed and 150 μL/well DMSO was added, followed by micro-vibrator shocking for 10 min and crystal dissolving completely. The absorbance (OD value) was measured by enzyme-labeled meter at 492 nm. Furthermore, the inhibitory rate of cell proliferation and the IC50 value of friedelin were counted by using Bliss method.
(§6) The de-methyl-cantharidin was taken as the positive control and the inhibitory rate of A375, L929 and Hela cells were measured by adding de-methyl-cantharidin (120 μmol/L) for 24 and 48 h (Table 8). Furthermore, the corresponding data of Friedelin were counted.

[1] = tested on: L929 (mouse lung epithelial tumor); test: MTT proliferation inhibition, L929 cells; format: cell-based; conditions: Mus musculus, read-out: Inhibitory rate (%)
Source text: as §1, §2, §3, §4, §5, §6

[2] = tested on: Hela (human cervical tumor); test: MTT proliferation inhibition, Hela cells; format: cell-based; conditions: Homo sapiens, HeLa, read-out: Inhibitory rate (%)
Source text: as §1, §2, §3, §4, §5, §6

[3] = tested on: P388 mouse leukemia cells; test: Growth inhibition of P388 cells (MTT reduction method, 48 h); format: cell-based
Procedure: […] growth […] The effect time was 48 h and 72 h, respectively.
(§7) 10^−5, 10^−6 and 10^−7 mol/L were determined as three critical levels. Invalid, weak effect and strong effect were determined as three evaluation indices.

[4] = tested on: A549 human lung adenocarcinoma cells; test: Growth inhibition of A549 cells (SRB protein coloring method, 72 h); format: cell-based
Procedure: Sulforhodamine B (SRB) protein staining method and microculture tetrozolium (MTT) reduction method were used to measure the growth inhibitory effects of tumor cells by EZR2002 with the test objects of P388 mouse leukemia cells and A549 human lung adenocarcinoma cells, respectively. The effect time was 48 h and 72 h, respectively.
as §7

[5] = compounds from bamboo shoot sheath; Sakai 1999; cited from earlier work

O=C1OC(=O)C2C3CCC(O3)C12 (centres unmarked) [De-methyl-cantharidin, de-methyl-cantharidin, reference compound]
inhibition at 120 µM (A375 (human malanoma); A-375, 24 h): 38.6%
inhibition at 120 µM (A375 (human malanoma); A-375, 48 h): 50.4%
inhibition at 120 µM ([1]; L929, 24 h): 40.5%
inhibition at 120 µM ([1]; L929, 48 h): 34.4%
inhibition at 120 µM ([2]; 24 h): 34.1%
inhibition at 120 µM ([2]; 48 h): 43.7%

CC[C@]1(O)C[C@H]2CN(CCc3c([nH]c4ccccc34)[C@@](C(=O)OC)(c3cc4c(cc3OC)N(C=O)[C@H]3[C@@](O)(C(=O)OC)[C@H](OC(C)=O)[C@]5(CC)C=CCN6CC[C@]43[C@@H]65)C2)C1 [Vincristin]
Evaluation [3]: Strong
Inhibition rate (%) ([3]; sample level 10^−4 mol/L): 93.1%
Inhibition rate (%) ([3]; sample level 10^−5 mol/L): 94.3%
Inhibition rate (%) ([3]; sample level 10^−6 mol/L): 94.8%
Inhibition rate (%) ([3]; sample level 10^−7 mol/L): 94.7%
Inhibition rate (%) ([3]; sample level 10^−8 mol/L): 93.2%
Evaluation [4]: Weak
Inhibition rate (%) ([4]; sample level 10^−4 mol/L): 71.3%
Inhibition rate (%) ([4]; sample level 10^−5 mol/L): 71.6%
Inhibition rate (%) ([4]; sample level 10^−6 mol/L): 66.5%
Inhibition rate (%) ([4]; sample level 10^−7 mol/L): 44.3%
Inhibition rate (%) ([4]; sample level 10^−8 mol/L): 9.6%

O=C1c2c(O)cc(O)cc2O[C@H](c2ccc(O)c(O)c2)[C@H]1O [taxifolin]
anti-oxidative activity relative to that of α-tocopherol [5]: ~1%

COc1cc(-c2cc(=O)c3c(O)cc(O)cc3o2)cc(OC)c1O [tricin]
anti-oxidative activity relative to that of α-tocopherol [5]: ~10%

Reference: US7811997B2, “Composition containing total triterpenoid sapogenins extracted from bamboo, and the preparation method and use thereof” (priority 2002, dated 2010)
